Test: xn = mol fraction of the nth substance listed
Details: Liquid, Vibrating tube method

CCCCCCC [heptane] + O=C=O
Details	mass density [kg/m3]
312.02 K, 10986 kPa, x2 = 0.9496	729.05
312.02 K, 12001 kPa, x2 = 0.9496	747.88
312.02 K, 13001 kPa, x2 = 0.9496	763.05
312.02 K, 13981 kPa, x2 = 0.9496	776.11
312.02 K, 15000 kPa, x2 = 0.9496	787.02
312.02 K, 16006 kPa, x2 = 0.9496	797.48
312.02 K, 16997 kPa, x2 = 0.9496	806.48
312.02 K, 18005 kPa, x2 = 0.9496	814.74
312.02 K, 19001 kPa, x2 = 0.9496	822.53
312.02 K, 19995 kPa, x2 = 0.9496	829.62
312.02 K, 20996 kPa, x2 = 0.9496	836.32
312.02 K, 22002 kPa, x2 = 0.9496	842.78
312.02 K, 23003 kPa, x2 = 0.9496	848.74
312.02 K, 24007 kPa, x2 = 0.9496	854.47
312.02 K, 24361 kPa, x2 = 0.9496	856.44
312.94 K, 5011 kPa, x2 = 0.3148	693.37
312.94 K, 6008 kPa, x2 = 0.3148	694.74
312.94 K, 7004 kPa, x2 = 0.3148	696.16
312.94 K, 8002 kPa, x2 = 0.3148	697.62
312.94 K, 8997 kPa, x2 = 0.3148	699.03
312.94 K, 9991 kPa, x2 = 0.3148	700.6
312.94 K, 11000 kPa, x2 = 0.3148	701.81
312.94 K, 12009 kPa, x2 = 0.3148	703.08
312.94 K, 13002 kPa, x2 = 0.3148	704.39
312.94 K, 13992 kPa, x2 = 0.3148	705.63
312.94 K, 15009 kPa, x2 = 0.3148	706.99
312.94 K, 16009 kPa, x2 = 0.3148	708.23
312.94 K, 16997 kPa, x2 = 0.3148	709.2
312.94 K, 18018 kPa, x2 = 0.3148	710.45
312.94 K, 19015 kPa, x2 = 0.3148	711.73
312.94 K, 20006 kPa, x2 = 0.3148	712.83
312.94 K, 21008 kPa, x2 = 0.3148	713.93
312.94 K, 22010 kPa, x2 = 0.3148	715.06
312.94 K, 23004 kPa, x2 = 0.3148	716.14
312.94 K, 24017 kPa, x2 = 0.3148	717.34
312.94 K, 24997 kPa, x2 = 0.3148	718.41
312.98 K, 7014 kPa, x2 = 0.7514	729.2
312.98 K, 8012 kPa, x2 = 0.7514	733.47
312.98 K, 8996 kPa, x2 = 0.7514	737.34
312.98 K, 10005 kPa, x2 = 0.7514	741.22
312.98 K, 10989 kPa, x2 = 0.7514	744.88
312.98 K, 12007 kPa, x2 = 0.7514	748.38
312.98 K, 12994 kPa, x2 = 0.7514	751.74
312.98 K, 14005 kPa, x2 = 0.7514	754.92
312.98 K, 14990 kPa, x2 = 0.7514	758
312.98 K, 16009 kPa, x2 = 0.7514	761.15
312.98 K, 17002 kPa, x2 = 0.7514	764.01
312.98 K, 17990 kPa, x2 = 0.7514	766.8
312.98 K, 19008 kPa, x2 = 0.7514	769.54
312.98 K, 20006 kPa, x2 = 0.7514	772.19
312.98 K, 21018 kPa, x2 = 0.7514	774.69
312.98 K, 21997 kPa, x2 = 0.7514	777.23
312.98 K, 23004 kPa, x2 = 0.7514	779.67
312.98 K, 23994 kPa, x2 = 0.7514	782.07
312.98 K, 24571 kPa, x2 = 0.7514	783.46
313.03 K, 5011 kPa, x2 = 0.5085	706.14
313.03 K, 6005 kPa, x2 = 0.5085	708.31
313.03 K, 7004 kPa, x2 = 0.5085	710.37
313.03 K, 8011 kPa, x2 = 0.5085	712.42
313.03 K, 8996 kPa, x2 = 0.5085	714.37
313.03 K, 10001 kPa, x2 = 0.5085	716.4
313.03 K, 11006 kPa, x2 = 0.5085	718.29
313.03 K, 11994 kPa, x2 = 0.5085	720.05
313.03 K, 13000 kPa, x2 = 0.5085	721.92
313.03 K, 14002 kPa, x2 = 0.5085	723.71
313.03 K, 15010 kPa, x2 = 0.5085	725.36
313.03 K, 16006 kPa, x2 = 0.5085	727.16
313.03 K, 17002 kPa, x2 = 0.5085	728.84
313.03 K, 18023 kPa, x2 = 0.5085	730.55
313.03 K, 19009 kPa, x2 = 0.5085	732.08
313.03 K, 20003 kPa, x2 = 0.5085	733.69
313.03 K, 21000 kPa, x2 = 0.5085	735.25
313.03 K, 22016 kPa, x2 = 0.5085	736.75
313.03 K, 23006 kPa, x2 = 0.5085	738.31
313.03 K, 24019 kPa, x2 = 0.5085	739.74
313.03 K, 25004 kPa, x2 = 0.5085	741.18
313.08 K, 2007 kPa, x2 = 0.0218	670.88
313.08 K, 3009 kPa, x2 = 0.0218	671.95
313.08 K, 4008 kPa, x2 = 0.0218	673.02
313.08 K, 5014 kPa, x2 = 0.0218	674.05
313.08 K, 6010 kPa, x2 = 0.0218	675.07
313.08 K, 7005 kPa, x2 = 0.0218	676.19
313.08 K, 8174 kPa, x2 = 0.0218	677.13
313.08 K, 9005 kPa, x2 = 0.0218	678.13
313.08 K, 10008 kPa, x2 = 0.0218	679.18
313.08 K, 11000 kPa, x2 = 0.0218	680.15
313.08 K, 12009 kPa, x2 = 0.0218	681.11
313.08 K, 13002 kPa, x2 = 0.0218	682.02
313.08 K, 14006 kPa, x2 = 0.0218	683
313.08 K, 15004 kPa, x2 = 0.0218	683.85
313.08 K, 16007 kPa, x2 = 0.0218	684.89
313.08 K, 17002 kPa, x2 = 0.0218	685.71
313.08 K, 18005 kPa, x2 = 0.0218	686.44
313.08 K, 19010 kPa, x2 = 0.0218	687.37
313.08 K, 20009 kPa, x2 = 0.0218	688.24
313.08 K, 21004 kPa, x2 = 0.0218	689.1
313.08 K, 22010 kPa, x2 = 0.0218	689.97
313.08 K, 23003 kPa, x2 = 0.0218	690.81
313.08 K, 24007 kPa, x2 = 0.0218	691.63
313.08 K, 24906 kPa, x2 = 0.0218	692.41
322.85 K, 5012 kPa, x2 = 0.3148	682.49
322.85 K, 6012 kPa, x2 = 0.3148	684.11
322.85 K, 7008 kPa, x2 = 0.3148	685.75
322.85 K, 8009 kPa, x2 = 0.3148	687.35
322.85 K, 8996 kPa, x2 = 0.3148	688.86
322.85 K, 10005 kPa, x2 = 0.3148	690.36
322.85 K, 11012 kPa, x2 = 0.3148	691.87
322.85 K, 11996 kPa, x2 = 0.3148	693.32
322.85 K, 13003 kPa, x2 = 0.3148	694.75
322.85 K, 14006 kPa, x2 = 0.3148	696.09
322.85 K, 15010 kPa, x2 = 0.3148	697.48
322.85 K, 16003 kPa, x2 = 0.3148	698.79
322.85 K, 17009 kPa, x2 = 0.3148	700.14
322.85 K, 18001 kPa, x2 = 0.3148	701.39
322.85 K, 19012 kPa, x2 = 0.3148	702.67
322.85 K, 20007 kPa, x2 = 0.3148	703.86
322.85 K, 21000 kPa, x2 = 0.3148	705.12
322.85 K, 22017 kPa, x2 = 0.3148	706.33
322.85 K, 23010 kPa, x2 = 0.3148	707.55
322.85 K, 23985 kPa, x2 = 0.3148	708.71
322.85 K, 25004 kPa, x2 = 0.3148	709.93
322.91 K, 8013 kPa, x2 = 0.7514	707.83
322.91 K, 8994 kPa, x2 = 0.7514	712.85
322.91 K, 10015 kPa, x2 = 0.7514	717.65
322.91 K, 10996 kPa, x2 = 0.7514	722.08
322.91 K, 12005 kPa, x2 = 0.7514	726.29
322.91 K, 13025 kPa, x2 = 0.7514	730.31
322.91 K, 13986 kPa, x2 = 0.7514	733.99
322.91 K, 15009 kPa, x2 = 0.7514	737.66
322.91 K, 16002 kPa, x2 = 0.7514	741.14
322.91 K, 17007 kPa, x2 = 0.7514	744.51
322.91 K, 17997 kPa, x2 = 0.7514	747.63
322.91 K, 19009 kPa, x2 = 0.7514	750.74
322.91 K, 20004 kPa, x2 = 0.7514	753.71
322.91 K, 21008 kPa, x2 = 0.7514	756.6

Source: the NIST ThermoML archive (doi:10.1021/je400056z)
